Reference: patent US20180296447A1, “BIOCIDAL COMPOSITIONS AND RELATED METHODS” (Imerys Filtration Minerals, Inc., priority 2015, published 2018)

Test system: Streptococcus mutans UA159 (ATCC 700610)
Experiment: Direct bacterial killing experiment, spiral plating viability
Format: cell-based
Protocol: A direct bacterial killing experiment was done using spiral plating to measure the viability of the Streptococcus mutans UA159 (ATCC 700610) (S. mutans). Streptococcus mutans is facultatively anaerobic, gram-positive coccus-shaped bacterium commonly found in the human oral cavity and is a significant contributor to tooth decay.
All of Examples 4-6 were measured blindly without any knowledge of their composition. This was accomplished by pipetting 1 ml of the diluted sample powder particles (100 mg/ml) into 3 ml of Tryptic Soy broth containing 1% sucrose (TSBS) and 20 ul of an overnight culture of S. mutans. The inoculated suspensions were incubated for 24 hours at 37° C. in 5% CO2, diluted 1:10 and 1:1000, and spiral plated onto blood agar plates. The colonies on the plates were counted in a Colony Forming Unit (CFU) after 24 hours of incubation. Regarding controls, 0.12% chlorhexidine (CHX) was used a positive control, and sterile water was used as a negative control.

[H]/N=C(\N/C(=N/[H])NCCCCCCNC(=N)NC(=N)Nc1ccc(Cl)cc1)Nc1ccc(Cl)cc1 [CHX control, chlorhexidine] was tested, and the “Inhibition of S. mutans in the viability assay (in words)” value (24 hours incubation) was “significantly inhibited” and the “Mean (CFU/ml)” value (S. mutans, 1 ml of 100 mg/ml sample powder in 3 ml TSBS, 24 hours at 37° C., 5% CO2, CHX 0.12%) was 1.67 × 10^2 ± 0.047 CFU/ml.
